Values of other authors in patent US20250345336A1, “ALLOPURINOL ORAL SUSPENSION” (Extrovis AG, priority 2024, published 2025).

aqueous solubility: poor aqueous solubility
SMILES: Oc1ncnc2[nH]ncc12 [Allopurinol, 1,5-dihydro-4H-pyrazolo [3,4-d] pyrimidin-4-one]
